# US12485106B2, “Methods of treating fibrotic liver diseases or conditions with indeglitazar” (PLEIOGENIX INC., priority 2023, dated 2025)
# Entries after “also recorded” stand apart in the source; their conditions may differ.
# Tests used:
# [1] = tested on: mouse model of human alcoholic hepatitis; assay: AH (NIAAA) mouse model, 8-week efficacy and safety study, alone and with prednisolone
# Description: Mice were fed with the ethanol diet for four weeks, followed by 4 weeks of intervention (8 weeks total treatment).
# Livers were collected at the end-point from all mice and weighed. Liver samples were processed for histology to assess steatosis, inflammatory infiltrates and fibrosis. Briefly, liver tissue was fixed in 4% paraformaldehyde and paraffin-embedded, sectioned into 5 m thickness, and stained with hematoxylin-eosin (H&E), Oil-Red O staining, and Masson's trichrome staining.
# Safety testing: The safety of indeglitazar treatment was assessed by body weight measurements and full necropsy at endpoint. Mice were terminated from the experiment by isoflurane anesthesia and blood was collected by a cardiac bleed into EDTA-treated tubes, and then centrifuged to obtain plasma to conduct clinical chemistry including full liver and renal toxicology panel. A portion of the liver was analyzed for liver triglycerides and cholesterol levels by biochemical assays. […] Hearts were weighted and fixed in 10% NBF, paraffin embedded, and sectioned into 4-μm thick slices. H&E staining was used to investigate myocardial cell hypertrophy, and ventricle diameters by microscopy.
# [2] = tested on: adipocyte differentiation; conditions: compared with full PPAR γ-agonists like pioglitazone; cited from earlier work
# PPARα = molecular target: T1, PPARα (Homo sapiens, UniProt Q07869); conditions: cited from earlier work
# T1 sequence (Q07869 1-468): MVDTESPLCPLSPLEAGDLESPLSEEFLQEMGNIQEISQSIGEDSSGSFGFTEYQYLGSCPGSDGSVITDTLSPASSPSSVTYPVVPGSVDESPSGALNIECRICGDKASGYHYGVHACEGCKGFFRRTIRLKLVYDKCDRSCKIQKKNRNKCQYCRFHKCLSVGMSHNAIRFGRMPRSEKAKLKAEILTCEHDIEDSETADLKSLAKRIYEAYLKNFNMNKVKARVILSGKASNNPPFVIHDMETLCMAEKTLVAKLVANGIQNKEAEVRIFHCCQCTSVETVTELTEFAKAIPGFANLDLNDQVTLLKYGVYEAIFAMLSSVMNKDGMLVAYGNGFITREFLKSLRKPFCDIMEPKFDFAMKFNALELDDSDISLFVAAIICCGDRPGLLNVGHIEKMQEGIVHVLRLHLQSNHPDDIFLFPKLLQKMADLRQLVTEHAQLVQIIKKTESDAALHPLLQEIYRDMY
# [3] = tested on: carbon tetrachloride (CCl4)-treated mice model of human NAFLD, NASH, and hepatic fibrosis; assay: CCl4-treated mouse model of human NAFLD, NASH and hepatic fibrosis; type: in vivo; conditions: vs CCl4 vehicle
# Description: Mouse model generation and treatment. C57Bl/6 mice (6-week-old, males) were purchased from Jackson Laboratories and were housed under specific pathogen-free conditions. All experiment protocols were approved by the Institutional Animal Care and Use Committee (IACUC) of Pleiogenix, or its research partners. The mice were acclimated for a minimum of seven days prior to initiation of treatment (Sanyal A J et al., N Engl J Med, (2010), 362:1675-85). The mice were fed Purina normal chow and drinking water ad libitum during the acclimation period. After acclimation, the mice were randomized based on body weight (bw). A total of 22 mice were used; and treated as described in Table 1. Briefly, on day 0, mice were treated according to Table 4.
# Liver fibrosis was induced as previously described (Nesto R W et al., Circulation, (2003), 108:2941-8). Carbon tetrachloride (CCl4), formulated in mineral oil, was administered twice per week i.p. at 1 μl/gram body weight throughout the study duration (8 wks). Indeglitazar was administered daily by oral gavage at 30 mg/kg body weight throughout the study duration (8 wks). Mice were observed daily for clinical signs. Any observations noted outside of the scheduled observations were documented as unscheduled. Assessments included, but were not be limited to, assessment of activity, posture, respiration, emesis, seizure, hydration status, injection site irritation, and overall body condition. The absence or presence of findings were recorded.
# Individual body weights were recorded on all animals prior to the initiation of the study and weekly body weights were recorded. Blood was collected and plasma was measured for alanine aminotransferase (ALT) and aspartate aminotransferase (AST) and on weeks 0 (baseline), 4, and wk 8 (terminal). At the end of the study, liver necropsy was performed including weighing and processing for histology, and frozen at −80° C. for the following downstream analyses: Liver histopathology: hematoxyline and eosin (H&E) staining (Kumar P et al., PLOS ONE, (2014), 9:e110405); Sirius Red staining for fibrosis (Nesto R W et al., Circulation, (2003), 108:2941-8). Biochemical markers of human hepatic fibrosis and anti-fibrotic adipokine, adiponectin: hepatic hydroxyproline (Nesto R W et al., Circulation, (2003), 108:2941-8); plasma TGFβ1 (Fischer A H et al., CSH Protoc, (2008), 2008:pdb.prot4986); adiponectin (Guo J C et al., Zhonghua Shi Yan He Lin Chuang Bing Du Xue Za Zhi, (2008), 22:354-7).
# […]
# [4] = tested on: adiponectin gene expression; conditions: compared with full PPAR γ-agonists like pioglitazone; cited from earlier work
# [5] = Parallel Artificial Membrane Permeability-Blood Brain Barrier Assay (PMBBB-096); type: in vitro ADME; conditions: compared to promazine HCl (high permeability control)
# Procedure: Indeglitazar was evaluated using the Parallel Artificial Membrane Permeability-Blood Brain Barrier Assay (PMBBB-096; BioAssay Systems, Hayward, CA).
# [6] = indeglitazar 50 mg/kg, prednisolone 10 mg/kg, vs EtOH-treated vehicle control
# [7] = indeglitazar 50 mg/kg, prednisolone 10 mg/kg, vs ethanol-treated vehicle control
# [8] = indeglitazar 50 mg/kg, prednisolone 10 mg/kg, vs vehicle+EtOH
# [9] = indeglitazar 50 mg/kg/day, prednisolone 10 mg/kg/day, vs ethanol-treated vehicle control
# [10] = indeglitazar 50 mg/kg/day, prednisolone 10 mg/kg/day, vs ethanol-treated vehicle control, listed as indeglitazar
# [11] = 30 mg/kg/day oral gavage, 8 wks, male mice
smiles,measurement,setting,value
"COc1ccc(S(=O)(=O)n2cc(CCC(=O)O)c3cc(OC)ccc32)cc1 [Indeglitazar, 3-[5-methoxy-1-(4-methoxybenzenesulfonyl)-1H-indol-3-yl]-propanoic acid]","liver histopathology: steatosis, hepatocellular karyomegaly, and ballooning","[1]; indeglitazar 50 mg/kg, prednisolone 10 mg/kg, data not shown",reduced significantly
same,effect on liver hydroxyproline,[1]; [6],significant decrease
same,effect on plasma adiponectin,[1]; [6],significant increase
same,effect on ALT,[1]; [7],significant decreases
same,effect on AST,[1]; [7],significant decreases
same,effect on plasma TGFβ,[1]; [7],significant decrease
same,effect on total bilirubin,[1]; [7],decrease; also recorded: significant decreases
same,decrease of liver TG,[1]; [8],28%
same,decrease of plasma TGFβ,[1]; [8],66%
same,decrease of plasma TNF-α,[1]; [8],50%
same,increase of adiponectin,[1]; [8],31%
same,decrease of hydroxyproline,"[1]; indeglitazar 50 mg/kg, prednisolone 10 mg/kg, vs vehicle+EtOH, P<0.0001",31%
same,effect on body weight,[1]; [9],no significant effect
same,effect on gamma-glutamyl transferase (GGT),[1]; [9],no significant effect
same,effect on heart weight (actual),[1]; [9],no significant effect
same,effect on heart weight divided by body weight×100,[1]; [9],no significant effect
same,effect on body weight,[1]; [10],"Neither EtOH (vs no EtOH vehicle control), indeglitazar, or prednisolone had a significant effect"
same,effect on heart weight (actual),[1]; [10],"Neither EtOH (vs no EtOH vehicle control), indeglitazar, or prednisolone had a significant effect"
same,effect on overall survival,"[1]; indeglitazar 50 mg/kg/day, prednisolone 10 mg/kg/day, vs ethanol-treated vehicle control, male and female mice",significant increase; also recorded: significantly increased
same,promoting adipocyte differentiation,[2],less potent
same,agonism against PPARα,PPARα,full agonism
same,effect on liver hydroxyproline,[3]; [11],significantly reduces
same,effect on plasma TGF-β1,[3]; [11],significantly reduces
same,effect on plasma adiponectin,[3]; [11],significantly increases
same,magnitude of increase of plasma adiponectin,[3]; 30 mg/kg/day,approximately 125%
same,magnitude of reduction of hydroxyproline,[3]; 30 mg/kg/day,approximately 25%
same,magnitude of reduction of plasma TGFβ1,[3]; 30 mg/kg/day,approximately 30%
same,stimulating adiponectin gene expression,[4],only partially effective
same,ability to cross the blood-brain barrier,[5],~15%
